Bridges are numbered along the chain shown (N, C = ends). Where no end group is shown, it is not given here.
Assays:
[1] = tested on: corn earworm (Helicoverpa zea); details: in vivo
[2] = tested on: lesser mealworm (Alphitobius diaperinus); assay: whole plant or invertebrate; details: 96 h, read-out: mortality rate
[3] = tested on: corn earworm (Helicoverpa zea); details: in vivo; remark: listed apart in the source
[4] = tested on: beet armyworm (Spodoptera exigua); details: in vivo

C/C=C(\C)C(=O)O[C@H]1C[C@@H](OC(C)=O)[C@@]2(C(=O)OC)CO[C@H]3[C@@H](O)[C@@](C)([C@]45O[C@@]4(C)[C@H]4C[C@@H]5O[C@@H]5OC=C[C@@]54O)[C@H]4[C@]1(CO[C@]4(O)C(=O)OC)[C@@H]32 [Azadirachtin]
mortality [1]: 37.5%

OB(O)O [boric acid]
mortality at 2500 µg/mL [2]: 10.3%

O=C(NC(=O)c1c(F)cccc1F)Nc1ccc(OC(F)(F)C(F)OC(F)(F)F)c(Cl)c1 (centres unmarked) [Novaluron]
greater than additive insecticidal effect when combined with U+2-ACTX-Hv1a [3]: Novaluron*

GSCADINGACKSDCDCCGDSVTCDCYWSDSCKCRESNFKIGMAIRKKFC (disulfide 3-17, 10-23, 14-49, 16-33, 25-31) [Γ-CNTX-Pn1a]
mortality [4]: 6%
mortality rate [4]: 3%

Source: patent US20240041038A1 (priority 2020, published 2024)
